# Experimental data: ChEMBL document CHEMBL1124670, “1-(3-cyano-2,3-dideoxy-beta-D-erythro-pentofuranosyl)thymine (cyanothymidine): synthesis and antiviral evaluation against human immunodeficiency virus” (1989)
# Experiments:
# Assay type in all cases: functional, Homo sapiens
# [1] = tested on: ATH-8 cell line; assay: Protection of ATH8 cells against the cytopathic effect of HIV isolate […]
# [2] = tested on: C8166; assay: Protection of C8166 cells against the cytopathic effect of HIV isolate CBL-1
# [3] = tested on: C8166; assay: Protection of C8166 cells against the cytopathic effect of HIV isolate RF
# [4] = tested on: C8166; assay: Pprotection of C8166 cells against the cytopathic effect of HIV isolate RF
SMILES,ED90 [1] [µg/mL],ED90 [2] [µg/mL],ED90 [3] [µg/mL],ED90 [4] [µg/mL]
Cc1cn(C2C[C@@H](C#N)[C@@H](CO)O2)c(=O)[nH]c1=O (stereo partly drawn),>2.5,>100,>100,
Cc1cn([C@H]2C=C[C@@H](CO)O2)c(=O)[nH]c1=O [STAVUDINE],<0.25,,,1
Cc1cn([C@H]2C[C@H](N=[N+]=[N-])[C@@H](CO)O2)c(=O)[nH]c1=O [ZIDOVUDINE],<0.25,0.1,,1
